Values quoted from earlier work as cited in patent US20110253140A1, “FORMULATIONS CONTAINING LARGE-SIZE CARRIER PARTICLES FOR DRY POWDER INHALATION AEROSOLS” (STC.UNM, priority 2008, published 2011).
Where two headings read alike, the source gives them in different places.

CCCC1O[C@@H]2C[C@H]3[C@@H]4CCC5=CC(=O)C=C[C@]5(C)[C@H]4[C@@H](O)C[C@]3(C)[C@]2(C(=O)CO)O1 (some centres unmarked) [budesonide]
lung deposition, % of the metered dose (PIF 35 L/min): 14.8%
lung deposition, % of the metered dose (peak inspiratory flow rate (PIF) 60 L/min): 27.7%
